Assay results from the supplement of paper PMC11208160.

Assay: recombinant barcode read abundance after kanamycin selection (control-corrected) (log10(CPM+1)); higher = more efficient recombination; sequences stand for … in AGTGCAGAGAAAATCGGCCAGTTTTCTCTGCCTGCAGTCCGCATGCCGT…AGATTTATGCAGCGGACTGCCTTTCTCCCAAAGTGATAAACCGGACAGTATCATGGACCGGTTTTCCCGGTAATCCGTATTTGCAAGGTTGGTTTCACT; site = the 11-nt target
How it was run: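 Oligos holding a promoter, target, barcode and the J23119-driven first 104 bases of the bridge RNA were Gibson-cloned into a vector that supplied the other 73 bp plus a T7-inducible recombinase. This library was co-electroporated with a donor plasmid into E. coli. Two replicates went on chloramphenicol/ampicillin LB agar (control) and two on chloramphenicol/ampicillin/kanamycin with 0.1 mM IPTG. Recombination efficiency is read from averaged, control-corrected barcode counts per million at recombinant junctions, reported as log10(CPM+1).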
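Also: IS621 recombinase and bridge RNA in Escherichia coli cells.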

Row | Sequence | recombinant barcode read abundance (log10)
1 | GGGTCCACTTGGGTTCTAACCTGTTGCGT (site GGGTCCACTAG) | 1.5
2 | GGGTCCACTTGGGTTCTAACCTGTTGCGT (site GGGTCCACTAT) | 1.45
3 | GGGTCCTCTTGGGTTCTAACCTGTTGCCC (site GGGTCCTCTAG) | 1.36
4 | GGGTCCTCTTGGGTTCTAACCTGTTGCCC (site GGGTCCTCTCG) | 0.0863
5 | GGGTCCTCTTGGGTTCTAACCTGTTGCCC (site GGGTCCTCTGG) | 1.23
6 | GGGTCCTCTTGGGTTCTAACCTGTTGCCC (site GGGTCCTCTTG) | 0.0208
7 | GGGTCCTCTTGGGTTCTAACCTGTTGCCG (site GGGTCCTCTAG) | 1.32
8 | GGGTCCTCTTGGGTTCTAACCTGTTGCCG (site GGGTCCTCTCG) | 2.01
9 | GGGTCCTCTTGGGTTCTAACCTGTTGCCG (site GGGTCCTCTGG) | 0.422
10 | GGGTCCTCTTGGGTTCTAACCTGTTGCCG (site GGGTCCTCTTG) | 0.205
11 | GGGTTCACTTGGGTTCTAACCTGTTGCCG (site GAGTTCACTAG) | 0.0415
12 | GGGTTCACTTGGGTTCTAACCTGTTGCCG (site GGGTTCACTCG) | 1.43
13 | GGGTTGCCTTGGGTTCTAACCTGTTGCCT (site GAGTTGCCTAG) | 0.945
14 | GGGTTGCCTTGGGTTCTAACCTGTTGCCT (site GCGTTGCCTAG) | 1.1
15 | GGGTTGCCTTGGGTTCTAACCTGTTGCCT (site GGGTTGCCTAG) | 1.46
16 | GGGTTGCCTTGGGTTCTAACCTGTTGCCT (site GTGTTGCCTAG) | 0.144
17 | GGTAAGACTTGGGTTCTAACCTGTTGCCT (site GGAAAGACTAG) | 0.31
18 | GGTAAGACTTGGGTTCTAACCTGTTGCCT (site GGCAAGACTAG) | 0.318
19 | GGTAAGACTTGGGTTCTAACCTGTTGCCT (site GGGAAGACTAG) | 0.197
20 | GGTAAGACTTGGGTTCTAACCTGTTGCCT (site GGTAAGACTAG) | 1.47
21 | GGTATGTCTTGGGTTCTAACCTGTTGCTG (site CGAATGTCTCA) | 0.119
22 | GGTATGTCTTGGGTTCTAACCTGTTGCTG (site GGTATGTCTCA) | 0.857
23 | GGTATGTCTTGGGTTCTAACCTGTTGCTT (site GCTATGTCTAG) | 0.0865
24 | GGTATGTCTTGGGTTCTAACCTGTTGCTT (site GGTATGTCTAA) | 0.641
25 | GGTCAACCTTGGGTTCTAACCTGTTGCCT (site GATCAACCTAG) | 0.394
26 | GGTCAACCTTGGGTTCTAACCTGTTGCCT (site GCTCAACCTAG) | 0.172

Row | Sequence | recombinant barcode read abundance (log10)
27 | GGTCAACCTTGGGTTCTAACCTGTTGCCT (site GGTCAACCTAG) | 1.14
28 | GGTCAACCTTGGGTTCTAACCTGTTGCCT (site GTTCAACCTAG) | 0.486
29 | GGTCAGTCTTGGGTTCTAACCTGTTGCGG (site GGTCAGTCTCC) | 1.84
30 | GGTCAGTCTTGGGTTCTAACCTGTTGCGG (site TAGTTTACTTA) | 0.0859
31 | GGTCATGCTTGGGTTCTAACCTGTTGCCT (site GGTCATACTAG) | 0.169
32 | GGTCATGCTTGGGTTCTAACCTGTTGCCT (site GGTCATCCTAG) | 0.131
33 | GGTCATGCTTGGGTTCTAACCTGTTGCCT (site GGTCATGCTAG) | 1.11
34 | GGTCATGCTTGGGTTCTAACCTGTTGCCT (site GGTCATTCTAG) | 0.0304
35 | GGTCCACCTTGGGTTCTAACCTGTTGCCT (site AGTCCACCTAG) | 0.386
36 | GGTCCACCTTGGGTTCTAACCTGTTGCCT (site CGTCCACCTAG) | 0.181
37 | GGTCCACCTTGGGTTCTAACCTGTTGCCT (site GGTCCACCTAG) | 1.07
38 | GGTCCACCTTGGGTTCTAACCTGTTGCCT (site TGTCCACCTAG) | 0.108
39 | GGTCCCACTTGGGTTCTAACCTGTTGCCT (site GGGCTCACTAG) | 0.0761
40 | GGTCCCACTTGGGTTCTAACCTGTTGCCT (site GGTCCCACTAG) | 0.943
41 | GGTCCGTCTTGGGTTCTAACCTGTTGCAT (site AGTCGGTCTAT) | 0.127
42 | GGTCCGTCTTGGGTTCTAACCTGTTGCAT (site GGTCCGTCTAT) | 1.16
43 | GGTCCTACTTGGGTTCTAACCTGTTGCCT (site GATCCTACTAG) | 0.241
44 | GGTCCTACTTGGGTTCTAACCTGTTGCCT (site GCTCCTACTAG) | 0.0585
45 | GGTCCTACTTGGGTTCTAACCTGTTGCCT (site GGTCCTACTAG) | 0.355
46 | GGTCCTACTTGGGTTCTAACCTGTTGCCT (site GTTCCTACTAG) | 0.187
47 | GGTCGAACTTGGGTTCTAACCTGTTGCCT (site GGTCAAACTAG) | 0.107
48 | GGTCGAACTTGGGTTCTAACCTGTTGCCT (site GGTCCAACTAG) | 0.127
49 | GGTCGAACTTGGGTTCTAACCTGTTGCCT (site GGTCGAACTAG) | 0.624
50 | GGTCGAACTTGGGTTCTAACCTGTTGCCT (site GGTCTAACTAG) | 0.0343
51 | GGTCGCTCTTGGGTTCTAACCTGTTGCCT (site GGACGCTCTAG) | 0.0961
52 | GGTCGCTCTTGGGTTCTAACCTGTTGCCT (site GGTCGCTCTAG) | 1.35

Row | Sequence | recombinant barcode read abundance (log10)
53 | GGTGACTCTTGGGTTCTAACCTGTTGCCT (site GGTGACTCTAG) | 1.15
54 | GGTGACTCTTGGGTTCTAACCTGTTGCCT (site GGTGGATCTAG) | 0.114
55 | GGTGCTCCTTGGGTTCTAACCTGTTGCAA (site GGTGCTCCTAT) | 0.0718
56 | GGTGCTCCTTGGGTTCTAACCTGTTGCAA (site GGTGCTCCTCT) | 0.0634
57 | GGTGCTCCTTGGGTTCTAACCTGTTGCAA (site GGTGCTCCTGT) | 0.0326
58 | GGTGCTCCTTGGGTTCTAACCTGTTGCAA (site GGTGCTCCTTT) | 0.3
59 | GGTGCTCCTTGGGTTCTAACCTGTTGCAG (site GGTGCTCCTAT) | 0.0917
60 | GGTGCTCCTTGGGTTCTAACCTGTTGCAG (site GGTGCTCCTCT) | 0.88
61 | GGTGCTCCTTGGGTTCTAACCTGTTGCAG (site GGTGCTCCTGT) | 0
62 | GGTGCTCCTTGGGTTCTAACCTGTTGCAG (site GGTGCTCCTTT) | 0.0255
63 | GGTGCTCCTTGGGTTCTAACCTGTTGCAT (site GGTGCTCCTAT) | 0.914
64 | GGTGCTCCTTGGGTTCTAACCTGTTGCAT (site GGTGCTCCTCT) | 0.017
65 | GGTGCTCCTTGGGTTCTAACCTGTTGCAT (site GGTGCTCCTGT) | 0.0976
66 | GGTGCTCCTTGGGTTCTAACCTGTTGCAT (site GGTGCTCCTTT) | 0.0242
67 | GGTGGGACTTGGGTTCTAACCTGTTGCAC (site AAATCTGCTAG) | 0.259
68 | GGTGGGACTTGGGTTCTAACCTGTTGCAC (site GGTGGGACTGT) | 1.95
69 | GGTTCATCTTGGGTTCTAACCTGTTGCCA (site GGCTCCTCTTG) | 0.0691
70 | GGTTCATCTTGGGTTCTAACCTGTTGCCA (site GGTTCATCTTG) | 0.0738
71 | GGTTCCTCTTGGGTTCTAACCTGTTGCGG (site GGTTCCTCTCC) | 0.933
72 | GGTTCCTCTTGGGTTCTAACCTGTTGCGG (site TACCTAACTAA) | 0.118
73 | GGTTGACCTTGGGTTCTAACCTGTTGCAT (site GGTTCACCTCT) | 0.226
74 | GGTTGACCTTGGGTTCTAACCTGTTGCAT (site GGTTGACCTAT) | 0.913
75 | GTAACCTCTTGGGTTCTAACCTGTTGCCC (site GTAACCTCTAG) | 0.928
76 | GTAACCTCTTGGGTTCTAACCTGTTGCCC (site GTAACCTCTCG) | 0.179
77 | GTAACCTCTTGGGTTCTAACCTGTTGCCC (site GTAACCTCTGG) | 1.97
